# According to patent US8791075B2, “Methods and compositions for inhibition of BCL6 repression” (Albert Einstein College of Medicine of Yeshiva University, priority 2008, dated 2014):
# Square brackets hold non-standard residues; d marks the D form. Ends that are not written are not given here. Peptide text beside a SMILES is read from it.
# Tested on: DLBCL cell lines known to be biologically dependent on BCL6 (ly1, Ly7 and Ly10)
# Experiment: DLBCL cell growth inhibition, BCL6-dependent cell lines
# Type: cell-based, human
# Conditions: for anti-lymphoma activity: BCL6 dependent DLBCL cells, 48 h; for GI50: Ly1, Ly7, Ly10, 48 hr total amount, dose frequency as in Table 1
# Method: DLBCL cell lines were grown at its respective concentration that were sufficient to keep the untreated cells in exponential growth over the 48 h peptide exposure time. Cell viability was determined by using a fluorometric resazurin reduction method (CellTiter-Blue, Promega) following the manufacturer instructions. The fluorescence (560Ex/590Em) was determined using the Polarstar Optima microplate reader (BMG Labtechnologies). The number of viable cells in each treated well was calculated by using the linear least-squares regression of the standard curve. Optical density was determined for 6 replicates per treatment condition or standard. Cell viability in peptide-treated cells was normalized to their respective controls. Cell viability was verified by the Sulforhodamine B assay (Sigma, Milwaukee, Wis.) following manufacturer's instructions with minor modifications for suspended cells. Experiments were carried out in triplicates and data are represented as percentage of growth inhibition to respective control with 95% confidence interval.
# DLBCL cell growth inhibition was chosen as the most relevant screening assay to compare and contrast the biological activity of BPI and its derivatives. […] Growth inhibition was measured by a metabolic viability assay and verified by trypan blue exclusion and were performed in biological quintuplicates. […]
Compound,anti-lymphoma activity,GI50 [µM],further results
"NH2-GLFGAIAGFIENGWEGMIDG-OH (H-GLFGAIAGFIENGWEGMIDG-OH) [Fu, reference compound]",,,"effect on DLBCL viability (FIG. 8) (Ly1, Ly7 and Ly10, peptides administered every 4 h during a 48 h interval): little or no effect"
YGRKKRRQRRRGGLVATVKEAGRSIHEIPREEL [S1],not active,,
G[dD][dI][dM]G[dE][dW]G[dN][dE][dI][dF]G[dA][dI][dA]G[dF][dL]GG[dR][dR][dR][dQ][dR][dR][dK][dK][dR]GGRSIHEIPRG [S4],,14.4,
CC[C@@H](C)[C@@H](NC(=O)CNC(=O)[C@@H](CCCNC(=N)N)NC(=O)CNC(=O)CNC(=O)[C@@H](CCCNC(=N)N)NC(=O)[C@@H](CCCCN)NC(=O)[C@@H](CCCCN)NC(=O)[C@@H](CCCNC(=N)N)NC(=O)[C@@H](CCCNC(=N)N)NC(=O)[C@@H](CCC(N)=O)NC(=O)[C@@H](CCCNC(=N)N)NC(=O)[C@@H](CCCNC(=N)N)NC(=O)[C@@H](CCCNC(=N)N)NC(=O)CN)C(=O)N[C@H](CCC(=O)O)C(=O)N[C@H](Cc1c[nH]cn1)C(=O)N[C@@H](C(=O)N[C@H](CO)C(=O)N[C@H](CCCNC(=N)N)C(=O)NCC(=O)O)[C@H](C)CC [S7] (H-G[dR][dR][dR][dQ][dR][dR][dK][dK][dR]GG[dR]G[dI][dE][dH][dI][dS][dR]G-OH; N-terminus and C-terminus assumed),significantly weaker,,
YGRKKRRQRRRGGRSIHEIPRG [S2],,21.7,
